Source: EPA's ToxRefDB 2

Legend:
rat [1] = conditions: Combined chronic toxicity/carcinogenicity, sprague dawley, Oral, Feed, dose end: 2 year, group: systemic
rat [2] = conditions: Multigenerational reproductive toxicity study, sprague dawley, Oral, Feed, dose end: 2 generation
dog = conditions: Chronic toxicity, beagle, Oral, Feed, dose end: 52 week, group: systemic
mouse [3] = conditions: Carcinogenicity; cd1; Oral; Feed; dose end: 80 week; group: systemic; systemic / in life observation / body weight / body weight + systemic / in life observation / body weight / body weight gain + systemic / …
rat [4] = conditions: Subchronic oral toxicity in rodents, sprague dawley, Feed, dose end: 90 day, group: systemic
mouse [5] = conditions: Subchronic oral toxicity in rodents, cd1, Feed, dose end: 90 day, group: systemic
rat [6] = conditions: Combined chronic toxicity/carcinogenicity, fischer, Oral, Gavage/Intubation, dose end: 104 week, group: systemic
mouse [7] = conditions: Subchronic oral toxicity in rodents, b6c3f1, Gavage/Intubation, dose end: 14 week, group: systemic
rat [8] = conditions: Subchronic oral toxicity in rodents, fischer, Gavage/Intubation, dose end: 14 week, group: systemic
mouse [9] = conditions: Combined chronic toxicity/carcinogenicity, b6c3f1, Oral, Gavage/Intubation, dose end: 104 week, group: systemic
[10] = systemic / organ weight / kidney / absolute + systemic / organ weight / kidney / relative to brain weight
[11] = systemic / organ weight / kidney / absolute + systemic / organ weight / kidney / relative to brain weight + systemic / pathology microscopic…
[12] = group: offspring, systemic / in life observation / body weight / offspring (pup) weight
[13] = group: offspring, systemic / in life observation / body weight / offspring (pup) weight + systemic / in life observation / body weight / offspring (pup) …
[14] = group: parental, systemic / in life observation / body weight / body weight + systemic / in life observation / body weight / body weight gain + systemic / in…
[15] = systemic / in life observation / food consumption / food consumption
[16] = systemic / in life observation / body weight / body weight + systemic / in life observation / body weight / body weight gain + systemic / …
[17] = systemic / in life observation / body weight / body weight + systemic / in life observation / body weight / body weight gain + systemic / in…
[18] = systemic / pathology microscopic / liver / basophilic focus
[19] = systemic / pathology microscopic / pancreas / atrophy + systemic / pathology microscopic / pancreas / hyperplasia + systemic / pathology …
[20] = systemic / pathology microscopic / adrenal gland / atrophy + systemic / pathology microscopic / adrenal gland / vacuolization + systemic / …
[21] = systemic / in life observation / body weight / body weight + systemic / in life observation / body weight / body weight gain
[22] = systemic / pathology microscopic / salivary glands / cytoplasmic alteration
[23] = systemic / pathology microscopic / salivary glands / cytoplasmic alteration + systemic / pathology microscopic / liver / carcinoma

CCCOC(=O)c1ccc(C(=O)OCCC)nc1 [Dipropyl pyridine-2,5-dicarboxylate]
LEL (rat [1]; [10]): 250 mg/kg/day | LOAEL (rat [1]; [10]): 250 mg/kg/day | NEL (rat [1]; [11]): 65 mg/kg/day | NOAEL (rat [1]; [11]): 65 mg/kg/day | LEL (rat [2]; [12]): 289 mg/kg/day | LOAEL (rat [2]; [12]): 289 mg/kg/day | NEL (rat [2]; [13]): 72.9 mg/kg/day | NOAEL (rat [2]; [13]): 72.9 mg/kg/day | LOAEL (rat [2]; [14]): 1020 mg/kg/day | NEL (rat [2]; [14]): 66 mg/kg/day | NOAEL (rat [2]; [14]): 255 mg/kg/day | LEL (rat [2]; group: parental, systemic / in life observation / food consumption / food consumption): 255 mg/kg/day | LOAEL (dog; systemic / in life observation / body weight / body weight gain): 148 mg/kg/day | NOAEL (dog; systemic / in life observation / body weight / body weight gain + systemic / in life observation / body weight / body weight + systemic / in…): 34.3 mg/kg/day | LEL (dog; [15]): 8.12 mg/kg/day | NEL (dog; [15]): < 8.12 mg/kg/day | LEL (mouse [3]): 494 mg/kg/day | LOAEL (mouse [3]): 494 mg/kg/day | NEL (mouse [3]): 124 mg/kg/day | NOAEL (mouse [3]): 124 mg/kg/day | LEL (rat [4]; systemic / hematology / hematocrit (hct) / hematocrit (hct)): 500 mg/kg/day | LOAEL (rat [4]; [16]): 1000 mg/kg/day | NEL (rat [4]; [16]): 250 mg/kg/day | NOAEL (rat [4]; [16]): 500 mg/kg/day | LOAEL (mouse [5]; [17]): 2000 mg/kg/day | NOAEL (mouse [5]; [17]): 1000 mg/kg/day | LEL (mouse [5]; systemic / organ weight / kidney / absolute + systemic / organ weight / kidney / relative to body weight): 500 mg/kg/day | NEL (mouse [5]; systemic / organ weight / kidney / relative to body weight + systemic / organ weight / liver / relative to body weight): 250 mg/kg/day

C[C@]12CCC(=O)C=C1CC[C@@H]1[C@@H]2CC[C@]2(C)C(=O)CC[C@@H]12 [4-Androstene-3,17-dione]
LEL (rat [6]; [18]): 10 mg/kg/day | NEL (rat [6]; [18]): < 10 mg/kg/day | LOAEL (rat [6]; [19]): 50 mg/kg/day | NOAEL (rat [6]; [19]): 20 mg/kg/day | LEL (mouse [7]; systemic / pathology microscopic / adrenal gland / atrophy): 5 mg/kg/day | NEL (mouse [7]; systemic / pathology microscopic / adrenal gland / atrophy + systemic / pathology microscopic / adrenal gland / vacuolization): 1 mg/kg/day | LOAEL (mouse [7]; [20]): > 50 mg/kg/day | NOAEL (mouse [7]; [20]): ≥ 50 mg/kg/day | LEL (rat [8]; [21]): 1 mg/kg/day | NEL (rat [8]; [21]): < 1 mg/kg/day | LOAEL (rat [8]; [16]): > 50 mg/kg/day | NOAEL (rat [8]; [16]): ≥ 50 mg/kg/day | LOAEL (mouse [9]; [22]): 2 mg/kg/day | NOAEL (mouse [9]; [22]): < 2 mg/kg/day | LEL (mouse [9]; [23]): 2 mg/kg/day | NEL (mouse [9]; [23]): < 2 mg/kg/day
